How the values were obtained:
Assay type in all cases: in vivo
hampsters [1] = assay: Bile lipid and bile acid contents of the bile (cholesterol-enriched diet, 80 days)
Method: (§1) The investigations were carried out on hampsters (of female sex, but excluding those in a state of pregnancy) having an initial weight of 75-90 g. They were treated for 80 days with oral administration (by gastric probe) of MG-UCD (10-20 mg/kg/day), chenodeoxycholic acid (10-20 mg/kg/day) or ursodeoxycholic acid (10-20 mg/kg/day) (Tables 4 and 5). The animals were maintained for 80 consecutive days on a Nossan feed diet for rats, enriched with cholesterol (2 mg/g of food).
(§2) Each experimental group consisted of 10 units. After 80 days, the animals were narcotised with ethyl ether, and the bile was withdrawn, together with the calculi and crystals from the gall-bladder as described by Pearlman and coll. in Gastroenterology 77, 634 (1979).
The bile acid, phospholipid, cholesterol, cholic acid, chenodeoxycholic acid, ursodeoxycholic acid, DCA (deoxycholic acid) and LCA (lithocholic acid) contents were evaluated in the bile by the methods described by Pearlman and coll. (see above).

hampsters [2] = assay: Action on the formation of cholesterol calculi in the gall-bladder (cholesterol-enriched diet, 80 days); settings: for % animals with calculi / % animals with crystals: cholesterol-enriched diet
Method: as §1, §2

patients = assay: Controlled study in comparison with the free acids; tolerability in patients
Mus musculus = assay: Acute lethality and toxicity, oral administration (gastric probe); design: key to Toxic symptomatology Type: NN = no symptomatology; D = depression; settings: for % mortality at following times after administration 24 h / % mortality at following times after administration 7 days / Toxic symptomatology Type / Toxic symptomatology Latency: oral; for LD50 (mg/kg with reliability limits) 7 days after treatment: po, probit method
Method: (§3) Unless otherwise specified, the research was carried out using: a) Mg-UCD capsules as such; b) the powdered contents of Mg-UCD capsules; CDCA (chenodeoxycholic acid) and UDCA (ursodeoxycholic acid) as pure substance which in all cases was partly dissolved and partly suspended under warm conditions (T = 30°C) in 10% gum arabic mucilage (so as to administer 10-40 ml of liquid per kg orally). In certain cases, namely in the experiments involving parenteral administration, the active principle of Mg-UCD, the chenodeoxycholic acid and ursodeoxycholic acid were dissolved in distilled water of slightly alkaline pH (5-10 ml/kg).
(§4) The generally acute lethality, toxicity and tolerability were determined by oral administration of the Mg-UCD (by gastric probe) in the Mus musculus, rat and dog. Animals of both sexes were used, none of which were pregnant. They were fasted for about 12 hours before treatment (but allowing them free access to water). The investigations were carried out using the Mg-UCD in powder form. Comparative investigations were carried out on the rat and Mus musculus using the active principle by endoperitoneal administration, and chenodeoxycholic acid and ursodeoxycholic acid by oral administration (using a gastric probe). Each dose was administered to 20 rats or Mus musculus (10 male and 10 female) and to eight dogs (4 male and 4 female). The animals were observed attentively during the 7 days following administration, and any lethality, toxic symptoms, disturbances, functional variations determinable with the eye, behaviour etc. were noted.
(§5) The LD50 was determined 7 days after administration using the probit method.

rat = assay: as above; design: key to Toxic symptomatology Type: NN = no symptomatology; D = depression; settings: for % mortality at following times after administration 24 h / % mortality at following times after administration 7 days / Toxic symptomatology Type / Toxic symptomatology Latency: oral; for LD50 (mg/kg with reliability limits) 7 days after treatment: po, probit method
Method: as §3, §4, §5

[3] = female hampsters, 10 mg/kg/day oral for 80 days
[4] = female hampsters, 20 mg/kg/day oral for 80 days
[5] = M. musculus F, 250 mg/kg (60 Dts/kg)
[6] = M. musculus F, 2500 mg/kg (600 Dts/kg)
[7] = M. musculus F, 5000 mg/kg (1200 Dts/kg)
[8] = M. musculus F, 10000 mg/kg (2400 Dts/kg)
[9] = M. musculus M, 250 mg/kg (60 Dts/kg)
[10] = M. musculus M, 2500 mg/kg (600 Dts/kg)
[11] = M. musculus M, 5000 mg/kg (1200 Dts/kg)
[12] = M. musculus M, 10000 mg/kg (2400 Dts/kg)
[13] = Rat F, 5000 mg/kg (1200 Dts/kg)
[14] = Rat F, 10000 mg/kg (2400 Dts/kg)
[15] = Rat M, 5000 mg/kg (1200 Dts/kg)
[16] = Rat M, 10000 mg/kg (2400 Dts/kg)

Substance: double magnesium salt of chenodeoxycholic acid and ursodeoxycholic acid [Mg-UCD]
- Bile acids (expressed as molar % ± s.e.) Cheno-deoxycholic acid (hampsters [1]; 10 mg/kg/day oral for 80 days): 28.6 ± 2.9 molar %
- Bile acids (expressed as molar % ± s.e.) Cholic acid (hampsters [1]; 10 mg/kg/day oral for 80 days): 18.1 ± 2.6 molar %
- Bile acids (expressed as molar % ± s.e.) DCA (hampsters [1]; 10 mg/kg/day oral for 80 days): 13.4 ± 0.5 molar %
- Bile acids (expressed as molar % ± s.e.) LCA (hampsters [1]; 10 mg/kg/day oral for 80 days): 2.4 ± 0.1 molar %
- Bile acids (expressed as molar % ± s.e.) Urso-deoxycholic acid (hampsters [1]; 10 mg/kg/day oral for 80 days): 21.7 ± 2.9 molar %
- Bile lipids (expressed as molar % ± s.e.) Bile acids (hampsters [1]; 10 mg/kg/day oral for 80 days): 78.6 ± 5.3 molar %
- Bile lipids (expressed as molar % ± s.e.) Cholesterol (hampsters [1]; 10 mg/kg/day oral for 80 days): 6.9 ± 0.4 molar %
- Bile lipids (expressed as molar % ± s.e.) Phospho-lipids (hampsters [1]; 10 mg/kg/day oral for 80 days): 15.6 ± 1.7 molar %
- Bile acids (expressed as molar % ± s.e.) Cheno-deoxycholic acid (hampsters [1]; 20 mg/kg/day oral for 80 days): 24.4 ± 3.1 molar %
- Bile acids (expressed as molar % ± s.e.) Cholic acid (hampsters [1]; 20 mg/kg/day oral for 80 days): 11.4 ± 1.7 molar %
- Bile acids (expressed as molar % ± s.e.) DCA (hampsters [1]; 20 mg/kg/day oral for 80 days): 10.5 ± 0.4 molar %
- Bile acids (expressed as molar % ± s.e.) LCA (hampsters [1]; 20 mg/kg/day oral for 80 days): 3.6 ± 0.2 molar %
- Bile acids (expressed as molar % ± s.e.) Urso-deoxycholic acid (hampsters [1]; 20 mg/kg/day oral for 80 days): 54.9 ± 3.6 molar %
- Bile lipids (expressed as molar % ± s.e.) Bile acids (hampsters [1]; 20 mg/kg/day oral for 80 days): 80.7 ± 4.7 molar %
- Bile lipids (expressed as molar % ± s.e.) Cholesterol (hampsters [1]; 20 mg/kg/day oral for 80 days): 4.7 ± 0.3 molar %
- Bile lipids (expressed as molar % ± s.e.) Phospho-lipids (hampsters [1]; 20 mg/kg/day oral for 80 days): 14.7 ± 1.9 molar %
- % animals with calculi (hampsters [2]; [3]): 20%
- % animals with crystals (hampsters [2]; [3]): 20%
- % animals with calculi (hampsters [2]; [4]): 0%
- % animals with crystals (hampsters [2]; [4]): 0%
- Body weight (g ± s.e.) after following days 80 (hampsters [2]; female hampsters, day 80, oral, 10 mg/kg/day): 152 ± 8 g
- appearance of cholesterol calculi and crystals in the gall-bladder (hampsters [2]; hampster, oral, more intense than chenodeoxycholic acid or ursodeoxycholic acid): hinders the appearance of cholesterol calculi and crystals in the gall-bladder in a dose-dependent manner
- anti-dislipidemic effect (patients; in particular hypotriglyceridemic, at much smaller doses than the individual bile acids): modest anti-dislipidemic effect
- side effects (patients; patients): No significant side effects
- effects compared with the free acids (patients; relatively small doses of the salt against double doses of each acid administered separately): greater effects
- % mortality at following times after administration 24 h (Mus musculus; [5]): 0%
- % mortality at following times after administration 7 days (Mus musculus; [5]): 0%
- Toxic symptomatology Type (Mus musculus; [5]): NN
- % mortality at following times after administration 24 h (Mus musculus; [6]): 0%
- % mortality at following times after administration 7 days (Mus musculus; [6]): 0%
- Toxic symptomatology Latency (Mus musculus; [6]): 5-10 min
- Toxic symptomatology Type (Mus musculus; [6]): D
- % mortality at following times after administration 24 h (Mus musculus; [7]): 0%
- % mortality at following times after administration 7 days (Mus musculus; [7]): 0%
- Toxic symptomatology Latency (Mus musculus; [7]): 5-10 min
- Toxic symptomatology Type (Mus musculus; [7]): D
- % mortality at following times after administration 24 h (Mus musculus; [8]): 10%
- % mortality at following times after administration 7 days (Mus musculus; [8]): 10%
- Toxic symptomatology Latency (Mus musculus; [8]): 5-10 min
- Toxic symptomatology Type (Mus musculus; [8]): D
- LD50 (mg/kg with reliability limits) 7 days after treatment (Mus musculus; M. musculus F): 14011 (10884-18033) mg/kg
- % mortality at following times after administration 24 h (Mus musculus; [9]): 0%
- % mortality at following times after administration 7 days (Mus musculus; [9]): 0%
- Toxic symptomatology Type (Mus musculus; [9]): NN
- % mortality at following times after administration 24 h (Mus musculus; [10]): 0%
- % mortality at following times after administration 7 days (Mus musculus; [10]): 0%
- Toxic symptomatology Latency (Mus musculus; [10]): 5-10 min
- Toxic symptomatology Type (Mus musculus; [10]): D
- % mortality at following times after administration 24 h (Mus musculus; [11]): 0%
- % mortality at following times after administration 7 days (Mus musculus; [11]): 0%
- Toxic symptomatology Latency (Mus musculus; [11]): 5-10 min
- Toxic symptomatology Type (Mus musculus; [11]): D
- % mortality at following times after administration 24 h (Mus musculus; [12]): 10%
- % mortality at following times after administration 7 days (Mus musculus; [12]): 10%
- Toxic symptomatology Latency (Mus musculus; [12]): 5-10 min
- Toxic symptomatology Type (Mus musculus; [12]): D
- LD50 (mg/kg with reliability limits) 7 days after treatment (Mus musculus; M. musculus M): 13100 (10515-16319) mg/kg
- % mortality at following times after administration 24 h (rat; Rat F, 250 mg/kg (60 Dts/kg)): 0%
- % mortality at following times after administration 7 days (rat; Rat F, 250 mg/kg (60 Dts/kg)): 0%
- Toxic symptomatology Type (rat; Rat F, 250 mg/kg (60 Dts/kg)): NN
- % mortality at following times after administration 24 h (rat; Rat F, 2500 mg/kg (600 Dts/kg)): 0%
- % mortality at following times after administration 7 days (rat; Rat F, 2500 mg/kg (600 Dts/kg)): 0%
- Toxic symptomatology Latency (rat; Rat F, 2500 mg/kg (600 Dts/kg)): 5-10 min
- Toxic symptomatology Type (rat; Rat F, 2500 mg/kg (600 Dts/kg)): D
- % mortality at following times after administration 24 h (rat; [13]): 0%
- % mortality at following times after administration 7 days (rat; [13]): 0%
- Toxic symptomatology Latency (rat; [13]): 5-10 min
- Toxic symptomatology Type (rat; [13]): D
- % mortality at following times after administration 24 h (rat; [14]): 10%
- % mortality at following times after administration 7 days (rat; [14]): 10%
- Toxic symptomatology Latency (rat; [14]): 5-10 min
- Toxic symptomatology Type (rat; [14]): D
- LD50 (mg/kg with reliability limits) 7 days after treatment (rat; Rat F): 13100 (10515-16319) mg/kg
- % mortality at following times after administration 24 h (rat; Rat M, 250 mg/kg (60 Dts/kg)): 0%
- % mortality at following times after administration 7 days (rat; Rat M, 250 mg/kg (60 Dts/kg)): 0%
- Toxic symptomatology Type (rat; Rat M, 250 mg/kg (60 Dts/kg)): NN
- % mortality at following times after administration 24 h (rat; Rat M, 2500 mg/kg (600 Dts/kg)): 0%
- % mortality at following times after administration 7 days (rat; Rat M, 2500 mg/kg (600 Dts/kg)): 0%
- Toxic symptomatology Latency (rat; Rat M, 2500 mg/kg (600 Dts/kg)): 5-10 min
- Toxic symptomatology Type (rat; Rat M, 2500 mg/kg (600 Dts/kg)): D
- % mortality at following times after administration 24 h (rat; [15]): 0%
- % mortality at following times after administration 7 days (rat; [15]): 0%
- Toxic symptomatology Latency (rat; [15]): 5-10 min
- Toxic symptomatology Type (rat; [15]): D
- % mortality at following times after administration 24 h (rat; [16]): 10%
- % mortality at following times after administration 7 days (rat; [16]): 10%
- Toxic symptomatology Latency (rat; [16]): 5-10 min
- Toxic symptomatology Type (rat; [16]): D
- LD50 (mg/kg with reliability limits) 7 days after treatment (rat; Rat M): 14011(10884-18033) mg/kg
